We go through three molecules from patent publication US20260294922A1, “Inhibitors of JUN N-Terminal Kinases (JNK1, JNK2, and/or JNK3) and Mitogen-Activated Protein Kinases (MAPK8, MAPK9, and/or MAPK10) and Methods of Using Same” (Baylor College of Medicine, priority 2023, published 2026).

The target in one series is Other MAPK. The series is described as follows: Eurofins KdSelect, other MAPK. The class given is binding. As to conditions: Table 2; IC50 nM; read-out: Other MAPK, based on Kd select results. The text has this:
The next step was to confirm that the compounds that bound to JNK1, JNK2 or JNK3 in a competitive manner, relative to bentamapimod, were inhibitors of the ATP-dependent kinase activity in assays. In many cases, the results have been replicated at ThermoFisher using their SelectScreen technology platform. Based on knowledge about JNK inhibitors, and the results of DEC-Tec selections, a target compound profile was developed (Table 2).
The efficacy and selectivity of BEND and TANZ were used to define a realistic preliminary target compound profile (Table 2) for the next generation of JNK1-3 inhibitors for the treatment of endometriosis.

In the next series the target is T1, JNK3 (MAPK10) (Homo sapiens, UniProt P53779).
T1 construct: purchased Eurofins (KdSelect service)
T1 sequence (P53779 whole entry): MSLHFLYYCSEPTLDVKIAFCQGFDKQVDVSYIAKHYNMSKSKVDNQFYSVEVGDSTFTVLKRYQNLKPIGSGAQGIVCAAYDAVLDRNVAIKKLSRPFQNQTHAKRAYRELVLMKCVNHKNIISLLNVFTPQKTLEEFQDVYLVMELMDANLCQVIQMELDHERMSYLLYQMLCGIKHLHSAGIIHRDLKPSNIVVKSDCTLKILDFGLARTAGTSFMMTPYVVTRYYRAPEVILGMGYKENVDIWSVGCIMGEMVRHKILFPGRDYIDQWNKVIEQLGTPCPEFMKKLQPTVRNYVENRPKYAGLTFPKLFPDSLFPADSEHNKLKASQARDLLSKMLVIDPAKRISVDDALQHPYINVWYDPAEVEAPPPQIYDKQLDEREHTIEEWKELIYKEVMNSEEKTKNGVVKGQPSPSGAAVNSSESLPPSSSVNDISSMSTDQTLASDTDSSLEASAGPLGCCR
Put plainly: Eurofins KdSelect, JNK3 (MAPK10). The series is classed as binding. As to conditions: Table 2; IC50 nM; read-out: JNK3 (MAPK10), based on Kd select results.

Series [1] addresses T2, JNK2 (Homo sapiens, UniProt P45984). The series is described as follows: JNK2 kinase (intrinsic ATPase, Kinase-Glo) assay. The series is classed as biochemical. As to conditions: Table 3b; read-out: Ki(app) JNK2.
In another series the target is T3, JNK1 (MAPK8) (Homo sapiens, UniProt P45983).
T3 construct: purchased Eurofins (KdSelect service)
T3 sequence (P45983 whole entry): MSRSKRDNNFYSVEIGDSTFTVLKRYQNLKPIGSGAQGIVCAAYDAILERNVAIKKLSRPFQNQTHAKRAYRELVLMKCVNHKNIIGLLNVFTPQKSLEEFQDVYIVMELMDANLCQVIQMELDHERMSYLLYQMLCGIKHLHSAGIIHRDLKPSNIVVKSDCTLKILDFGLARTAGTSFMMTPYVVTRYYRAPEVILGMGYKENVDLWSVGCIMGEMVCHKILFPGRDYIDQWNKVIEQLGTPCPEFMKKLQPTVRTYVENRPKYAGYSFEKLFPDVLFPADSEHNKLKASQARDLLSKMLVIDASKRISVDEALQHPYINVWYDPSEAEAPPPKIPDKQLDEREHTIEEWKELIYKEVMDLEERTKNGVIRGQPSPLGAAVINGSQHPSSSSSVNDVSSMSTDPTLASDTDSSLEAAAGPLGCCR
Put plainly: Eurofins KdSelect, JNK1 (MAPK8). The series is classed as binding. As to conditions: Table 2; IC50 nM; read-out: JNK1 (MAPK8), based on Kd select results.

Series [2] addresses T4, JNK1 (Homo sapiens, UniProt P45983). The series is described as follows: Promega NanoBRET intracellular target engagement (tracer K10 displacement), JNK1. The class given is cell-based.
Series [3] deals with T4, JNK1. The series is described as follows: JNK1 kinase (intrinsic ATPase, Kinase-Glo) assay. As to conditions: Table 3b; read-out: Ki(app) JNK1. The class given is biochemical. The essentials:
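Full-length construct not stated; kinases hydrolyse ATP without peptide substrate, reaction run 30 or 60 min at 30° C, remaining ATP read by Kinase-Glo luminescence with no-kinase controls. Apparent Ki from normalized fractional activities fitted to modified Morrison tight-binding equation; orthogonal LanthaScreen binding assay gave IC50.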
A general note: Kinase-Glo measures the ATP left after a reaction by luminescence.

Series [4] addresses T5, JNK3 (Homo sapiens, UniProt P53779). Put plainly: JNK3 kinase (intrinsic ATPase, Kinase-Glo) assay. As to conditions: Table 3b; read-out: Ki(app) JNK3. The class given is biochemical.
The test system of series [5] is 12Z endometriotic epithelial cells. Put plainly: IL-1β-stimulated pro-inflammatory gene expression (qPCR) in 12Z cells. The series is classed as cell-based, human. As to conditions: relative to bentamapimod. The text has this: These studies indicate that NanoBRET assays are an innovative technical platform to measure target engagement of CDD JNK inhibitors with the target JNK1, JNK2 or JNK3. As further evidence that JNK inhibitors address disease-relevant endpoints, biological responses of JNK inhibitors are provided herein, as measured in target tissue cellular models. 12Z immortalized endometriotic epithelial cells and patient-derived endometriotic stromal cells have been cultured with reference compound bentamapimod, CDD-2628, and CDD-2728. To exemplify the effects of CDD-2628 and CDD-2728 in the endometrial cell cultures, gene expression was measured using qPCR (expressed as fold-change relative to GAPDH, a housekeeping gene that is not affected by culture treatment effects) that reflect synthesis of inflammatory lipids (PTGS2), transformation of cells to a more migration and invasive potential (MMP-3) and chemoattractant cytokines to recruit pro-inflammatory immune cells (IL-6, IL-8).
In the culture systems employed in FIGS. 12A-12J, FIGS. 13A-13B, FIGS. 14A-14H, FIGS. 15A-15H, and FIGS. 16A-16F, the treatment of cells with IL-1β is used to mimic the peritoneal environment where IL-1β is most frequently measured at higher concentrations in patients with endometriosis (0.1 ng/mL-1 ng/mL) than in unaffected women (<0.01 ng/mL). The use of IL-1β to mimic the pro-inflammatory environment is a common method in cellular assays for endometriosis research. Although the concentrations of IL-1β in these cell cultures are higher than measured in peritoneal fluid, there are multiple other pro-inflammatory cytokines in peritoneal fluid that contribute to the pro-inflammatory environment.
Specifically, 12Z cells were plated at a density of 1×10^5 cells/well in a 12-well tissue culture plate, serum-starved overnight (17-18 h), pre-treated with vehicle (DMSO) or JNK inhibitor for 30 minutes, then stimulated with 10 ng/ml IL-1β in the presence or absence of the JNK inhibitors for 6 hours. After the 6-hour treatment, mRNA was extracted from the cells using the Qiagen RNEasy mini isolation kit and […] of mRNA was reverse transcribed into cDNA using the qScript cDNA Supermix (Quanta Biosciences). cDNA was amplified using SYBR Green Master Mix (Applied Biosystems) with quantitative Real Time PCR (BioRad CFX) using pre-designed and validated primers specific for genes encoding IL6, IL8, PTGS2/COX2, and MMP3 (BioRad). Relative quantification of these specific genes was calculated by the ΔΔCt method, normalizing their abundance relative to the internal housekeeping gene, GAPDH, followed by quantification relative to the vehicle-treated cells. Statistical analyses and visualizations were performed using a One Way ANOVA with a Tukey's multiple comparison post-hoc test on GraphPad Prism version 9.
(In general: In qPCR the cycle at which signal appears reflects the starting amount.)

For a further series, the target named is T6, JNK2 (MAPK9) (Homo sapiens, UniProt P45984).
T6 construct: purchased Eurofins (KdSelect service)
T6 sequence (P45984 whole entry): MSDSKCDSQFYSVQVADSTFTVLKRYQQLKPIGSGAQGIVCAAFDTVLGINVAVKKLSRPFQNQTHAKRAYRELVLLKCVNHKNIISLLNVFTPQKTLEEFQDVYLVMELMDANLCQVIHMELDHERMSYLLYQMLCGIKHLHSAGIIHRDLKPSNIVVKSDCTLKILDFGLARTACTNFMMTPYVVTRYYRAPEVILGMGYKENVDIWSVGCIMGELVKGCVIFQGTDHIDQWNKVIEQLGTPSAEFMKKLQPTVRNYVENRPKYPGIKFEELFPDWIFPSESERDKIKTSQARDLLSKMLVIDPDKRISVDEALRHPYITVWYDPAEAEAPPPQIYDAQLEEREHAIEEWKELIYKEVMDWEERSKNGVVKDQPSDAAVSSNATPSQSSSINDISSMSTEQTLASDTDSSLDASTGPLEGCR
The series is described as follows: Eurofins KdSelect, JNK2 (MAPK9). The class given is binding. As to conditions: Table 2; IC50 nM; read-out: JNK2 (MAPK9), based on Kd select results.

For series [6] the following is noted: cited from earlier work; for clinical safety: Phase 1 volunteers / IPF.
The next series relates to 480 kinases. Put plainly: Eurofins KINOMEscan selectivity profile. The class given is binding. As to conditions: Bentamapimod and Tanzisertib at 1 μM; listed as BEND.
A further series addresses T7, MEK4 (Homo sapiens, UniProt P45985).
T7 construct: purchased ThermoFisher (SelectScreen)
T7 sequence (P45985 1-399): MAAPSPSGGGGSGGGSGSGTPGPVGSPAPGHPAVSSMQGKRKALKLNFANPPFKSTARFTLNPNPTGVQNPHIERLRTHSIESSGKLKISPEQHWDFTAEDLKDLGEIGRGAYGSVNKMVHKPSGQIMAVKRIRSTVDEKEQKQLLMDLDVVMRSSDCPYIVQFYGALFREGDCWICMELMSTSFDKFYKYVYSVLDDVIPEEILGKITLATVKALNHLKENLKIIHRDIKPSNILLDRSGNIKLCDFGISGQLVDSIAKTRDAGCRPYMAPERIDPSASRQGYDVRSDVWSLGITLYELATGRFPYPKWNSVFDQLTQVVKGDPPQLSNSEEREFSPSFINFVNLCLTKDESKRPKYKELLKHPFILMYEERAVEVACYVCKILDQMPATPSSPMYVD
Put plainly: KINOMEscan, MEK4. The class given is binding.

The target in series [7] is T2, JNK2. The series is described as follows: Promega NanoBRET intracellular target engagement (tracer K10 displacement), JNK2. The series is classed as cell-based. (BRET reads energy transfer from a luciferase to a nearby fluorophore.)
Series [8] deals with T5, JNK3. Put plainly: Promega NanoBRET intracellular target engagement (tracer K10 displacement), JNK3. The series is classed as cell-based.
Series [9] has as its target T4, JNK1. Put plainly: JNK1 biochemical assay (piperazine series). As to conditions: in words. The text has this: FIG. 21B depicts concentration-dependent inhibition of JNK1 with CDD-1722 and CDD-1723. Components of CDD-1722 and CD-1723 represent alternative building blocks which may be incorporated during optimization of pharmaceutical properties of JNK-I.
For series [10], the system named is immortalized human endometriotic epithelial cells (iHEEC). The series is described as follows: Phosphorylation of JNK and Jun in iHEEC. The series is classed as cell-based. The source says: FIG. 26A depicts the effects of CDD-2728 and CDD-3013 on phosphorylation of the JNK enzyme itself (i.e., representing MEK4 inhibition) and phosphorylation of pSer63 and pSer73 on the transcription factor Jun in immortalized human endometriotic epithelial cells (iHEEC). The HEEC cells are a well characterized cell line that are relevant for the evaluation of inflammatory endpoints and measures of epithelial-to-mesenchymal transitions (EMT). […] This is consistent with the potency relationships of CDD-2728 relative to bentamapimod observed in cytokine gene expression described above in iHEEC cells and primary human stromal endometriotic cells. […] SP600125 has been frequently described as a poorly-selective JNK-I but in this context provides additional confirmation of inhibition of the JNK target kinase for CDD-2728. […] This adds further support to the critical role of JNK-1 to the therapeutic effect of the JNK inhibitors of the disclosure.

Series [11] deals with T8, LATS1 (Homo sapiens, UniProt O95835). Put plainly: KINOMEscan, LATS1. The class given is binding. As to conditions: 1 μM.
T8 sequence (O95835 whole entry): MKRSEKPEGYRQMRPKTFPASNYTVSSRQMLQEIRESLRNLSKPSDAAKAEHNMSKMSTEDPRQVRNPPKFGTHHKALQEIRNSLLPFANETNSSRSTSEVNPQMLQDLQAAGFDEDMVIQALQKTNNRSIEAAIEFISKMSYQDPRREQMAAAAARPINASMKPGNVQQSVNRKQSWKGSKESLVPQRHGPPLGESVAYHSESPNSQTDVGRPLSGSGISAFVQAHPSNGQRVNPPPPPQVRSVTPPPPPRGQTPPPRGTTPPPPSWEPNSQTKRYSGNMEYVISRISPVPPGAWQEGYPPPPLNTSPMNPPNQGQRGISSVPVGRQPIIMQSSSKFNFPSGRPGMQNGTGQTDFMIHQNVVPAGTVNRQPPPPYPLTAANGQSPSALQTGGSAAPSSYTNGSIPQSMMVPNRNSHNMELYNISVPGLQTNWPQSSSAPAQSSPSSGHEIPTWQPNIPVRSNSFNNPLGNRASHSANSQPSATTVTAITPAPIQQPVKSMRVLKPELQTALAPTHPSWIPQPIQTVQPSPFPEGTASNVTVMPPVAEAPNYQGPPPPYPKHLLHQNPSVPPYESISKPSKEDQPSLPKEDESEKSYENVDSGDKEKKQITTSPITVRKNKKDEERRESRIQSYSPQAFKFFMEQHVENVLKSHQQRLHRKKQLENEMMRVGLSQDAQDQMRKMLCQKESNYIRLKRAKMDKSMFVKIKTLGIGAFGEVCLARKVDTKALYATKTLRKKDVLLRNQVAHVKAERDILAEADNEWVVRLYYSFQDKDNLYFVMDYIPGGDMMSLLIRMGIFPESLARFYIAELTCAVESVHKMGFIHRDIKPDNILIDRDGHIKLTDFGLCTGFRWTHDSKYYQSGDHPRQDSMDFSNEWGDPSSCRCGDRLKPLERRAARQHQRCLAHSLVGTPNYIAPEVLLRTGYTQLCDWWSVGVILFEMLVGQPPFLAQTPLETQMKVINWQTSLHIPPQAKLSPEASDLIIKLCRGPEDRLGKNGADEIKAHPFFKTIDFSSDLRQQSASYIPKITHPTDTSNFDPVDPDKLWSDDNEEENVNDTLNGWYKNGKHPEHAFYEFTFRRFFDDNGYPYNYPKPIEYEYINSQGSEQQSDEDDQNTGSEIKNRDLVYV
Series [12] has as its target T8, LATS1. The series is described as follows: ThermoFisher Z'Lyte assay, LATS1. The series is classed as biochemical. The source says:
Inhibition of LATS1 was not confirmed in a subsequent ThermoFisher Z'Lyte assay.

For orientation: Kd means the concentration at which binding is half-saturated. For orientation: pKi means −log10 of the Ki, conventionally taken in molar units. A word on the pIC50: it is the negative decadic logarithm of the IC50, by convention in mol/L. Lower therefore signals a large IC50.

pIC50, pKi: −log10 of the molar value. Entries after “also recorded” stand apart in the source; their conditions may differ. Like-named read-outs stand apart in the source and are kept apart here. Bounds are passed on as bounds.

T4 sequence (P45983 whole entry): as the sequence (P45983 whole entry) above
T2 sequence (P45984 whole entry): as the sequence (P45984 whole entry) above
T5 sequence (P53779 whole entry): as the sequence (P53779 whole entry) above

As for `N#CC(c1ccnc(OCc2ccc(CN3CCOCC3)cc2)n1)c1nc2ccccc2s1` (stereo not shown) [CDD-939, bentamapimod], the Kd on Other MAPK was more than 1000 nM; on JNK3 (MAPK10) it was 130 nM; at JNK1 (MAPK8), 270 nM; at JNK2 (MAPK9) it was 170 nM. Moreover, the pKi at JNK2 [1] is 6.19; on JNK1 [3], 6.66; on JNK3 [4], 7.41. Further, on JNK1 [2] (cyano group), the “interference with NanoBRET readout” value was “interferes with the assay readout”. For the same molecule, the PTGS2 expression entry in [5] is reported as “concentration-dependent decreases”. Besides, the IL-6 expression entry is “concentration-dependent decreases” in series [5] (listed as Bentamapimod) and “equally effective” in [5] (listed as bentamapimod). For the same molecule, the clinical safety result in [6] is listed as “deemed safe”. Also, the “KINOMEscan selectivity / inhibition” value in the series with 480 kinases is listed as “JNK1-3 (CMGC family), were inhibited; also recorded: highly selective”. The “MEK4 inhibition in KINOMEscan” value on MEK4 is listed as “does not inhibit MEK4”.
Turning to `CNC(=O)CN1[C@H](CCNC(=O)OCc2ccccc2)CN(Cc2cccc3ccnn23)C[C@H]1CC(=O)NCCCN(C)c1ccc(F)cc1` [CDD-1723, benzyl (2-((2R,6R)-6-(2-((3-((4-fluorophenyl)(methyl)amino)propyl)amino)-2-oxoethyl)-1-(2-(methylamino)-2-oxoethyl)-4-(pyrazolo[1,5-a]pyridin-7-ylmethyl)piperazin-2-yl)ethyl)carbamate], the pIC50 on JNK2 [7] was 4.49; at JNK1 [2] it was 4.62; at JNK3 [8] it was 4.42. For the same molecule, the JNK1 inhibition result at JNK1 [9] is listed as “good inhibition of JNK1”.
Consider `O[C@H]1CC[C@H](Nc2ncc3nc(Nc4c(F)cc(F)cc4F)n([C@H]4CCOC4)c3n2)CC1` [CDD-985, tanzisertib], for which, on Other MAPK, the Kd is more than 1000 nM. Further, the “phosphorylation of Jun at pSer63 and pSer73” value in series [10] was “lack of efficacy”. Moreover, the “LATS1 inhibition in KINOMEscan” value at LATS1 [11] is recorded as “weakly inhibited”. In addition, in series [6] (IPF), the “effect in preclinical IPF models and human IPF patients” value was “reduced inflammation, EMT, and fibrosis”. Moreover, the clinical safety entry in series [6] (listed as TANZ) is listed as “adverse liver effect”; in series [6] (listed as Tanzisertib), “deemed safe”. The “LATS1 inhibition in Z'Lyte assay” value on LATS1 [12] was “not confirmed”.
